Laboratory results taken from PubChem BioAssay (NCI).
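Tested at 5 concentrations; 48 h exposure; 96-well plates; endpoints linearly interpolated, else capped at highest concentration. GI50 marks 50% less growth. The concentration for full growth arrest is given as TGI.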

Legend:
Experiment in all cases: growth of human tumour cells (NCI), 48 h; in the data active = GI50 below about 0.43 µM; inactive = the rest
SF-268 CNS = system: SF-268 CNS
BT-549 breast = system: BT-549 breast
HCT-116 colon = system: HCT-116 colon
SNB-19 CNS = system: SNB-19 CNS
CAKI-1 renal = system: CAKI-1 renal
NCI/ADR-RES ovarian = system: NCI/ADR-RES ovarian
SK-MEL-28 melanoma = system: SK-MEL-28 melanoma
OVCAR-4 ovarian = system: OVCAR-4 ovarian
UACC-257 melanoma = system: UACC-257 melanoma
K-562 leukemia = system: K-562 leukemia
MDA-MB-435 = system: MDA-MB-435
HOP-92 NSCLC = system: HOP-92 NSCLC
OVCAR-3 ovarian = system: OVCAR-3 ovarian
SK-OV-3 ovarian = system: SK-OV-3 ovarian
A549 NSCLC = system: A549 NSCLC
SW-620 colon = system: SW-620 colon
UO-31 renal = system: UO-31 renal
NCI-H23 lung = system: NCI-H23 lung
MDA-MB-231 breast = system: MDA-MB-231 breast
LOX IMVI melanoma = system: LOX IMVI melanoma
HS 578T breast = system: HS 578T breast
U251 CNS = system: U251 CNS
NCI-H226 lung = system: NCI-H226 lung
SR leukemia = system: SR leukemia
SK-MEL-2 melanoma = system: SK-MEL-2 melanoma
NCI-H460 lung = system: NCI-H460 lung
SF-295 CNS = system: SF-295 CNS
COLO 205 colon = system: COLO 205 colon
MCF7 breast = system: MCF7 breast
UACC-62 melanoma = system: UACC-62 melanoma
HCC-2998 colon = system: HCC-2998 colon
ACHN renal = system: ACHN renal
T-47D breast = system: T-47D breast
HCT-15 colon = system: HCT-15 colon
PC-3 prostate = system: PC-3 prostate
SF-539 CNS = system: SF-539 CNS
M14 melanoma = system: M14 melanoma
RXF 393 renal = system: RXF 393 renal
786-0 renal = system: 786-0 renal
EKVX NSCLC = system: EKVX NSCLC
OVCAR-8 ovarian = system: OVCAR-8 ovarian
MOLT-4 leukemia = system: MOLT-4 leukemia
OVCAR-5 ovarian = system: OVCAR-5 ovarian
DU-145 prostate = system: DU-145 prostate
KM12 colon = system: KM12 colon
NCI-H522 lung = system: NCI-H522 lung
MDA-N = system: MDA-N
CCRF-CEM leukemia = system: CCRF-CEM leukemia
HL-60(TB) leukemia = system: HL-60(TB) leukemia
IGROV1 ovarian = system: IGROV1 ovarian
SN12C renal = system: SN12C renal
TK-10 renal = system: TK-10 renal
HT29 colon = system: HT29 colon
SNB-75 CNS = system: SNB-75 CNS
HOP-62 NSCLC = system: HOP-62 NSCLC
SK-MEL-5 melanoma = system: SK-MEL-5 melanoma
MALME-3M melanoma = system: MALME-3M melanoma
RPMI-8226 leukemia = system: RPMI-8226 leukemia

CCSCC(=O)N1CCc2c([nH]c3ccccc23)C1=O
> 100 µM: TGI (SF-268 CNS) | TGI (BT-549 breast) | TGI (HCT-116 colon) | TGI (SNB-19 CNS) | TGI (CAKI-1 renal) | TGI (NCI/ADR-RES ovarian) | TGI (SK-MEL-28 melanoma) | TGI (OVCAR-4 ovarian) | TGI (UACC-257 melanoma) | TGI (K-562 leukemia) | TGI (MDA-MB-435) | TGI (OVCAR-3 ovarian) | TGI (SK-OV-3 ovarian) | TGI (A549 NSCLC) | TGI (SW-620 colon) | TGI (UO-31 renal) | TGI (NCI-H23 lung) | TGI (MDA-MB-231 breast) | TGI (LOX IMVI melanoma) | TGI (HS 578T breast) | TGI (U251 CNS) | TGI (NCI-H226 lung) | TGI (SR leukemia) | TGI (SK-MEL-2 melanoma) | TGI (NCI-H460 lung) | TGI (SF-295 CNS) | TGI (COLO 205 colon) | TGI (MCF7 breast) | TGI (UACC-62 melanoma) | TGI (HCC-2998 colon) | TGI (ACHN renal) | TGI (T-47D breast) | TGI (HCT-15 colon) | TGI (PC-3 prostate) | TGI (SF-539 CNS) | TGI (M14 melanoma) | TGI (RXF 393 renal) | TGI (786-0 renal) | TGI (EKVX NSCLC) | TGI (OVCAR-8 ovarian) | TGI (MOLT-4 leukemia) | TGI (OVCAR-5 ovarian) | TGI (DU-145 prostate) | TGI (KM12 colon) | TGI (NCI-H522 lung) | TGI (MDA-N) | TGI (CCRF-CEM leukemia) | TGI (HL-60(TB) leukemia) | TGI (IGROV1 ovarian) | TGI (SN12C renal) | TGI (TK-10 renal) | TGI (HT29 colon) | TGI (SNB-75 CNS) | TGI (HOP-62 NSCLC) | TGI (SK-MEL-5 melanoma) | TGI (MALME-3M melanoma)
92.8 µM: TGI (HOP-92 NSCLC)

CN(NC(=O)CC(=O)NN(C)C(=S)c1ccccc1)C(=S)c1ccccc1
> 89.6 µM: TGI (UO-31 renal)
inactive: GI50 (SF-268 CNS) 67.2 µM | GI50 (BT-549 breast) 88.7 µM | GI50 (CAKI-1 renal) > 55.7 µM | GI50 (NCI/ADR-RES ovarian) 55.3 µM | GI50 (SK-MEL-28 melanoma) > 72.8 µM | GI50 (OVCAR-4 ovarian) > 71.2 µM | GI50 (K-562 leukemia) 40.8 µM | GI50 (MDA-MB-435) > 84.4 µM | GI50 (A549 NSCLC) 16.7 µM | GI50 (UO-31 renal) 14.6 µM | GI50 (NCI-H23 lung) > 87.4 µM | GI50 (MDA-MB-231 breast) > 100 µM | GI50 (HS 578T breast) 19.2 µM | GI50 (U251 CNS) 49.8 µM | GI50 (SK-MEL-2 melanoma) 8.77 µM | GI50 (ACHN renal) 73.9 µM | GI50 (HCT-15 colon) 32.1 µM | GI50 (PC-3 prostate) 51.5 µM | GI50 (M14 melanoma) > 73.7 µM | GI50 (RXF 393 renal) > 61.1 µM | GI50 (786-0 renal) 56.3 µM | GI50 (OVCAR-8 ovarian) > 66.7 µM | GI50 (DU-145 prostate) > 59.2 µM | GI50 (KM12 colon) 65.1 µM | GI50 (NCI-H522 lung) 69.9 µM | GI50 (CCRF-CEM leukemia) 64.7 µM | GI50 (HL-60(TB) leukemia) > 70.7 µM | GI50 (SN12C renal) > 100 µM | GI50 (SNB-75 CNS) > 54.6 µM | GI50 (HOP-62 NSCLC) > 69.2 µM | GI50 (SK-MEL-5 melanoma) 49.1 µM | GI50 (MALME-3M melanoma) > 69.5 µM
> 100 µM: TGI (SF-268 CNS) | TGI (BT-549 breast) | TGI (HCT-116 colon) | TGI (SNB-19 CNS) | TGI (CAKI-1 renal) | TGI (NCI/ADR-RES ovarian) | TGI (SK-MEL-28 melanoma) | TGI (OVCAR-4 ovarian) | TGI (K-562 leukemia) | TGI (MDA-MB-435) | TGI (HOP-92 NSCLC) | TGI (OVCAR-3 ovarian) | TGI (SK-OV-3 ovarian) | TGI (A549 NSCLC) | TGI (SW-620 colon) | TGI (NCI-H23 lung) | TGI (MDA-MB-231 breast) | TGI (LOX IMVI melanoma) | TGI (HS 578T breast) | TGI (U251 CNS) | TGI (NCI-H226 lung) | TGI (SR leukemia) | TGI (SK-MEL-2 melanoma) | TGI (NCI-H460 lung) | TGI (SF-295 CNS) | TGI (COLO 205 colon) | TGI (MCF7 breast) | TGI (UACC-62 melanoma) | TGI (HCC-2998 colon) | TGI (ACHN renal) | TGI (HCT-15 colon) | TGI (RPMI-8226 leukemia) | TGI (PC-3 prostate) | TGI (SF-539 CNS) | TGI (M14 melanoma) | TGI (RXF 393 renal) | TGI (786-0 renal) | TGI (EKVX NSCLC) | TGI (OVCAR-8 ovarian) | TGI (OVCAR-5 ovarian) | TGI (DU-145 prostate) | TGI (KM12 colon) | TGI (NCI-H522 lung) | TGI (MDA-N) | TGI (CCRF-CEM leukemia) | TGI (HL-60(TB) leukemia) | TGI (IGROV1 ovarian) | TGI (SN12C renal) | TGI (TK-10 renal) | TGI (HT29 colon) | TGI (SNB-75 CNS) | TGI (HOP-62 NSCLC) | TGI (SK-MEL-5 melanoma) | TGI (MALME-3M melanoma)
active: GI50 (NCI-H460 lung) 0.0843 µM | GI50 (MCF7 breast) < 0.01 µM
